Experimental data from patent US11963936B2, “Method of manufacturing stable emulsions and compositions containing the same” (UNIVERSITY OF FLORIDA RESEARCH FOUNDATION, INC., priority 2013, dated 2024).

Experiments:
[1] = Propofol partitioning in binary mixtures of excipient oils
Description: Experiments were performed to measure the drug partitioning of binary mixtures of excipient oils. 1 wt % drug loading and 10 wt % total excipient oil loading were maintained as the experimental basis of all the binary systems formed to compare with Diprivan. The relative fractions of excipient oil were varied between 100 wt % ethyl butyrate and 100 wt % soybean oil. […] These experiments were repeated by replacing soybean oil with olive oil.

[2] = Creaming / visual shelf stability of emulsions (serum height); assay type: physicochemical; settings: 10 wt % oil; for ability of the oil to yield stable emulsions: 1 wt % drug; for time to begin creaming: emulsions of 1 wt % propofol, 1 wt % Pluronic F68
Description: About 10 mL of each emulsion was placed in a 20 mL vial and left undisturbed on a lab bench to explore each emulsion's stability to creaming. Creaming is an instability mechanism where lower density oil droplets rise to the top of the system forming a cream layer with a more clear serum layer below. The emulsions were photographed periodically with a digital camera (Panasonic DMC FH25), and the photographs were analyzed using image processing software (ImageJ) to quantify the degree of creaming. The height of each emulsion phase was measured in number of pixels, and the percentage serum was calculated from the serum height divided by the total emulsion height. The time at which creaming was first observed was used as a measure of each emulsion's stability, and the time at which the emulsion had completely creamed was noted if applicable. A creaming time longer than two years is desired to be considered a commercially viable pharmaceutical emulsion.
Preliminary screening of emulsion stability was conducted by leaving emulsions undisturbed on a shelf and making visual observations at various times. The initial images of the two formulations for each of the five excipient oils are included in the top row of FIG. 3.
Images of the emulsions were digitally measured to determine the serum height as a function of time for all the emulsion systems (FIG. 3). A stable system should not separate into cream and serum phases, so the time at which serum is first observed is considered to be an approximate indicator of the degree of stability.

[3] = Oil-water partitioning of propofol in equilibrated bulk excipient oil/water mixtures; assay type: physicochemical; settings: for Cfree: propofol in aqueous phase, 1 wt % drug
Description: Oil-water partition coefficients were calculated by equilibrating a mixture of propofol, water, and oil with mass fractions fdrug, faq, and foil, respectively. The drug loading was kept constant at 1 wt %, while oil loadings were chosen to be 5 or 15 wt %. Additional experiments were performed at 10 wt % excipient oil loading for ethyl butyrate and soybean oil because of the major focus on these oils in this work. The water phase was separated and assayed for propofol concentration (cf), and the partition coefficient was obtained from a mass balance, i.e., Mdrug=Vaqcf+KVoilcf (2) where K is the oil-water partition coefficient, Mdrug, Vaq and Voil are the […] and volumes of water and oil, respectively in the system. The mass balance yields the following equation for K:
[formula] where ρaq and ρoil are the densities of water and oil, respectively. Table 2 lists the molecular weight and densities of various oils considered, along with measured aqueous phase drug concentrations and calculated logarithmic oil-water partition coefficients.

[4] = cited from earlier work
[5] = oil-water partition coefficient of propofol, 5% excipient oil
[6] = oil-water partition coefficient of propofol, 15% excipient oil

SMILES	ability of the oil to yield stable emulsions [2]	Log10K [3, 5]	Log10K [3, 6]	Cfree ([3]; 5% excipient oil)	Cfree ([3]; 15% excipient oil)	time to begin creaming [2]	partition coefficient of propofol compared to soybean oil [1]	log(K) ([3]; oil-water partition coefficient of propofol)	Log10K ([3]; oil-water partition coefficient of propofol, 10% excipient oil)	Cfree ([3]; 10% excipient oil)	pKa [4]
CCCC(=O)OCC [Ethyl butyrate (EB), Ethyl butyrate]	did not yield stable emulsions	4.33	4.35	6.93 mg/L	2.48 mg/L	–	about 4 fold	4.3	4.32	4.60 ± 1.83 mg/L	–
CCCCCCCC(=O)O [Octanoic acid (OA), Octanoic acid]	did not yield stable emulsions	3.65	3.76	33.5 mg/L	10.0 mg/L	–	–	–	–	–	–
CCCCCCCCCCCCCCCCCC(=O)O [stearic acid]	–	–	–	–	–	–	–	–	–	–	about 4.9

Now from value to compound, other results behind:

ability of the oil to yield stable emulsions [2]	Log10K [3, 5]	Log10K [3, 6]	Cfree ([3]; 5% excipient oil)	Cfree ([3]; 15% excipient oil)	time to begin creaming [2]	SMILES	partition coefficient of propofol compared to soybean oil [1]	log(K) ([3]; oil-water partition coefficient of propofol)	Log10K ([3]; oil-water partition coefficient of propofol, 10% excipient oil)	Cfree ([3]; 10% excipient oil)	pKa [4]
did not yield stable emulsions	3.92	4.08	16.9 mg/L	4.39 mg/L	several days or weeks	CCCCCCCCCCCCCC(=O)OC(C)C [Isopropyl myristate (IM), Isopropyl myristate]	–	–	–	–	–
did not yield stable emulsions	3.71	4.01	28.1 mg/L	5.17 mg/L	several days or weeks	CCCCCCCCCCCCCCCC(=O)OC(C)C [Isopropyl palmitate (IP), Isopropyl palmitate]	–	–	–	–	–
